Biological target: GGT (gamma glutamyl transpeptidase) of H. pylori ATCC 43504 cells (Helicobacter pylori, UniProt O25743)
Experiment: Cell Based GGT Inhibitor (CBGI) Assay
Settings: whole H. pylori ATCC 43504 cells, ~30 min room temperature, AMC release fluorescence; table titled 'Binding Data of GGT Modulating Compounds'
Method: Cell Based GGT Inhibitor Assay
The protocol of the Cell Based GGT Inhibitor Assay (CBGI assay) is adapted from the Methods in Enzymology protocol 252: 66 (1995).
H. pylori Sample Preparation
H. pylori ATCC 43504 were grown on blood agar plates. For accurate results, the H. pylori cells were in a logarithmic, spiral phase. This was achieved by plating cells from a culture that was >75% spiral in a phosphate buffered saline (PBS) solution on blood agar plates and incubating them overnight in microaerophilic conditions at 37° C. The next day, the cells were harvested by adding 1 ml of PBS to the plate and scraping off cells gently with a loop. The cells were then placed in a sterile 50 ml conical tube and the plate was washed ˜5 times with 1 ml of PBS. The washes were then pooled in the same 50 ml tube. An OD600 was subsequently taken using PBS as the blank. The cells were then resuspended to reach a final OD600 of 0.05. A single blood agar plate typically yields approximately 50-75 mls of cells at A600 OD=0.05. 3 mls of cells at OD=0.05 are required for each 96-well plate; 30 μl added to each well yields a final OD of 0.015. 4-5 blood agar plates would yield more than enough H. pylori cells for 50 96-well microtitre plates.
On each test plate, two known inhibitors were added to separate control wells (4 μl 0.25 mM azaserine and 4 μl 1.25 mM γ-glu-hydroxamate). Control wells containing only cells were also included on each test plate. In each well, 70 μl of buffer was added using an automated dispenser. Then, 30 μl H. pylori cells were added at OD A600=0.05. After the cells were added to each well, the plate was kept at room temperature for ˜30 minutes. The reaction was terminated by dispensing 75 μl 100 mM glycine to each well.
GGT inhibition was determined by analyzing the release of amido-4-methylcoumarin (AMC) at A460 nm after excitation at A360 in Cytoflour//Walloc fluorescent plate reader. The data was compared to the average of the two control wells from each plate and the γ-glu-hydroxamate control, which should always be ˜50%. Any compound that inhibited ≦50% activity was retested.

Sequence of GGT (gamma glutamyl transpeptidase) of H. pylori ATCC 43504 cells (O25743 entry or part of it): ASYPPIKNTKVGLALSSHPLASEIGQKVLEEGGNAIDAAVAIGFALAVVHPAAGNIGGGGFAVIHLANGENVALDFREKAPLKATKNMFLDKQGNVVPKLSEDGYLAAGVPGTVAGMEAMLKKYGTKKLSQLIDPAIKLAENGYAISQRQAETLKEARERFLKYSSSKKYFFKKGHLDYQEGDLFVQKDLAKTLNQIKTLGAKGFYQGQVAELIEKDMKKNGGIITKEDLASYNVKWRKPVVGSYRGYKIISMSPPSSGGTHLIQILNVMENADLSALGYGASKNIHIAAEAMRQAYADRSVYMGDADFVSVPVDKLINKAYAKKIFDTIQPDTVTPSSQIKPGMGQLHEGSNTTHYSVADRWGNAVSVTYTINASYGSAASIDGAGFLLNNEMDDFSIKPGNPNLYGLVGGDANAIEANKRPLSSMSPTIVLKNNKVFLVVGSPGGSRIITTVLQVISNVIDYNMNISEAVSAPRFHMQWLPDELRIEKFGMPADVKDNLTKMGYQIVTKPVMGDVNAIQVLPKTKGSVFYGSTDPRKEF

Structure (SMILES) | IC50
CCN1CCCC(NC(=O)c2ccc(Nc3ccnc4cc5ccccc5cc34)cc2)C1 (stereo not shown) [A] | 1.13 µM
COc1cc(/C=C2/SC(=S)NC2=O)ccc1O [B] | 22.4 µM
Cc1nc(-c2nc(C(=O)/C=C/N(C)C)cs2)cs1 [C] | 17.9 to 35.8 µM
CC(C)OC(=O)CSc1nc2cc(C(=O)NC(Cc3cnc[nH]3)C(N)=O)ccc2n1CCc1c[nH]c2ccccc12 (stereo not shown) [D] | 4.53 µM
CCN(CC)CCn1c(SCC(=O)c2ccc(-c3ccccc3)cc2)nc2cc(C(=O)NC(Cc3cn(Cc4ccccc4)cn3)C(N)=O)ccc21 (stereo not shown) [E] | 11.2 µM
Cc1ccc(CSc2nnc(/N=C/N(C)C)s2)cc1 [F] | 2.02 µM
COc1cccc(-c2cc3[nH]c(C)cc(=O)n3n2)c1 [G] | 2.15 µM
